From patent US20230339900A1, “CASEIN KINASE 1 DELTA MODULATORS” (Janssen Pharmaceutica NV, priority 2020, published 2023) come the findings set out here.

Test [1] concerns the target human recombinant GST cleaved CSNK1D (Homo sapiens (Human), UniProt P48730). As to the kind of experiment: Purified enzyme assay (ADP-Glo Kinase Assay). The test is classed as biochemical. The note with it: 2 nM CSNK1D, peptide substrate 150 μM, ATP 20 μM, 45 minutes room temperature. The method, then:
In this assay, CSNK1D phosphorylates a substrate peptide PLSRTL-pS-VASLPGL in the presence of ATP. […] This assay monitors CSNK1D kinase activity by measuring the amount of ADP produced in the assay. A substrate mix is prepared by diluting peptide substrate (final concentration 150 μM) with ATP (final concentration 20 μM) in assay buffer (50 mM Tris/HCl pH 7.4+10 mM MgCl2+1 mM DTT+0.1% BSA). The substrate mix is added to each well of a low volume, 384-well, white opaque plate. Test compounds were diluted in HBSS and added in a dose-response to the plate. To start the reaction, 2 nM of constitutively active human recombinant GST cleaved CSNK1D (University of Dundee, clone DU 19064, stored at 0.28 mg/mL in 50 mM Tris/HCl pH 7.5, 150 mM NaCl, 270 mM Sucrose, 0.1 mM EGTA, 0.1% 2-mercaptoethanol, 0.02% Brij-35.1 mM benzamidine, 0.2 mM PMSF) was added to each well and the plate centrifuged for 5 minutes at 1500 rpm. The total volume of each reaction is 5 ul (2 μL of substrate mix, 1 μL of diluted compounds, and 2 μL of human recombinant CSNK1D). The plates are incubated for 45 minutes at room temperature.
ADP was quantified using the ADP-Glo™ Kinase Assay. ADP-Glo Reagent (5 μL) was added to each well. After a 1 hour incubation at room temperature, Kinase Detection Reagent (10 μL) was added to each well and incubated for 30 minutes. Luminescence was measured on the Perkin Elmer Wallac EnVision 2104 Multi-label Reader. The raw data from the Envision is used to calculate percent activity.
(In general: In ADP-Glo the light output rises with the ADP produced.)

In test [2] the target is human CSNK1D tagged with nanoluciferase (Homo sapiens (Human), UniProt P48730). As to the kind of experiment: Whole Cell nBRET CSNK1D Binding Assay. The note with it: living CHO cells stably expressing human CSNK1D-nanoluciferase; NanoBret tracer 130 nM; 2 hours 37° C.; read-out: CSNK1D BRET IC50. As to the method:
This cellular binding assay uses a bioluminescence resonance energy transfer to measure human CSNK1D binding activity in living Chinese Hamster Ovary (CHO) cells that are stably expressing human CSNK1D tagged with nanoluciferase. The cells were grown to confluency in growth media (DMEM:F12, 50 u/mLPen/Strep, […] glutamine, and 0.6 mg/mL G418) in 10 cm^2 dishes. Cells were seeded onto white, opaque 384-well plates (Corning, cat #3704) at a density of 8,000 cells/well in serum-free OptiMEM and left to incubated overnight at 37° C., […]. The next day, test compounds were added in a dose response to the plate followed by a NanoBret tracer (130 nM). The plate is mixed on an orbital shaker for 30 seconds, then placed in a 37° C. incubator for 2 hours. NanoBret Nano-Glo Substrate solution (20 μL) is added to all wells and incubated for 3 minutes at room temperature. Donor (450 nm) and acceptor (630 nm) emissions are then measured within 10 minutes using a ClarioStar plate reader. The data is used to calculate millibret units, defined as (E630/E450)*1000. Bret emissions are then graphed against the log of compound concentrations and these graphs are used to determine the IC50 of each compound.
A general note: BRET reads energy transfer from a luciferase to a nearby fluorophore.

Sequence of human CSNK1D tagged with nanoluciferase (P48730 whole entry): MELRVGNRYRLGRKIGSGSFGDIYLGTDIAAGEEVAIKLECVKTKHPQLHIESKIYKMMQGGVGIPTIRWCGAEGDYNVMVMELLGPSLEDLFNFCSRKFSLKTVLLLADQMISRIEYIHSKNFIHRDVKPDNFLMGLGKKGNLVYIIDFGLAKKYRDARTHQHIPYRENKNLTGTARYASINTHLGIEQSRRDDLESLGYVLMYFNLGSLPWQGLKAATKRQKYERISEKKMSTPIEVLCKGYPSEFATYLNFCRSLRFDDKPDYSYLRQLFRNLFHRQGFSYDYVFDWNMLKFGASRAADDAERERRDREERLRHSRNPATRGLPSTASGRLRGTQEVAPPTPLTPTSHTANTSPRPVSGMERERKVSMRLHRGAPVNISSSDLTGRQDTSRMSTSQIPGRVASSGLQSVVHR
Sequence of human recombinant GST cleaved CSNK1D (P48730 whole entry): as above

On to `Cn1cc(-c2ccnc3[nH]cc(C4COC4)c23)c(-c2ccc(F)cn2)n1` [Example 93, 4-[3-(5-Fluoro-2-pyridyl)-1-methyl-pyrazol-4-yl]-3-(oxetan-3-yl)-1H-pyrrolo[2,3-b]pyridine], for which, in test [1], the AC50 was found to be 123 nM. Moreover, the IC50 in test [2] is 3660 nM.

As for `Cn1cc(-c2ccnc3[nH]cc(CC#N)c23)c(-c2ccc(F)cn2)n1` [Example 120, 2-[4-[3-(5-Fluoro-2-pyridyl)-1-methyl-pyrazol-4-yl]-1H-pyrrolo[2,3-b]pyridin-3-yl]acetonitrile], the AC50 in test [1] stood at 31 nM. Moreover, in test [2], the IC50 is 8710 nM.

In the case of `Cn1cc(-c2ccnc3[nH]cc(C#N)c23)c(-c2ccc(F)cn2)n1` [Example 88, 4-[3-(5-Fluoro-2-pyridyl)-1-methyl-pyrazol-4-yl]-1H-pyrrolo[2,3-b]pyridine-3-carbonitrile], the concentration at half-maximal activity (AC50) in test [1] is 16 nM. In test [2], the IC50 turned out to be 144 nM.

In the case of `Cn1cc(-c2ccnc3cnccc23)c(-c2ccc(F)cn2)n1` [Example 112, 4-[3-(5-Fluoro-2-pyridyl)-1-methyl-pyrazol-4-yl]-1,7-naphthyridine], the AC50 in test [1] was found to be 51 nM. The IC50 in test [2] turned out to be 953 nM.

As to `Cc1cc(-c2cn(CC(F)F)nc2-c2ccc(F)cn2)c2cn[nH]c2n1` [Example 69, 4-(1-(2,2-Difluoroethyl)-3-(5-fluoropyridin-2-yl)-1H-pyrazol-4-yl)-6-methyl-1H-pyrazolo[3,4-b]pyridine], the half-maximal activity concentration (AC50) in test [1] is 6 nM. Also, the IC50 in test [2] stood at 311 nM.

Consider `Cc1ccc(-c2nn(C)cc2-c2ccnc3[nH]ccc23)cn1` [Example 22, 4-[1-Methyl-3-(6-methyl-3-pyridyl)pyrazol-4-yl]-1H-pyrrolo[2,3-b]pyridine], for which the AC50 in test [1] came out at 44 nM. The IC50 in test [2] worked out at 1170 nM.

`Cn1cc(-c2ccnc3cc[nH]c23)c(-c2ccc(F)cn2)n1` [Example 4, 7-(3-(5-Fluoropyridin-2-yl)-1-methyl-1H-pyrazol-4-yl)-1H-pyrrolo[3,2-b]pyridine]: the AC50 in test [1] was found to be 118 nM. The IC50 in test [2] stood at 2360 nM.

On to `Cn1cc(-c2ccnc3[nH]ccc23)c(-c2ncc(F)cn2)n1` [Example 43, 4-[3-(5-Fluoropyrimidin-2-yl)-1-methyl-pyrazol-4-yl]-1H-pyrrolo[2,3-b]pyridine], for which the AC50 in test [1] turned out to be 31 nM. The IC50 in test [2] came to 268 nM.

For the compound `Cn1cc(-c2ccnc3[nH]cc(Cl)c23)c(-c2ccc(F)cn2)n1` [Example 76, 3-Chloro-4-[3-(5-fluoro-2-pyridyl)-1-methyl-pyrazol-4-yl]-1H-pyrrolo[2,3-b]pyridine], the AC50 in test [1] turned out to be 1 nM. Also, the half-maximal inhibitory concentration (IC50) in test [2] is 17 nM.

For `CCn1cc(-c2cc(C)nc3[nH]ncc23)c(-c2ccc(F)cn2)n1` [Example 57, 4-(1-Ethyl-3-(5-fluoropyridin-2-yl)-1H-pyrazol-4-yl)-6-methyl-1H-pyrazolo[3,4-b]pyridine], the AC50 in test [1] was determined as 14 nM. Moreover, the IC50 in test [2] came to 219 nM.

As to `Cc1cc(-c2cn(C3CC3)nc2-c2ccc(F)cn2)c2cn[nH]c2n1` [Example 134, 4-[1-Cyclopropyl-3-(5-fluoro-2-pyridyl)pyrazol-4-yl]-6-methyl-1H-pyrazolo[3,4-b]pyridine], the AC50 in test [1] turned out to be 30 nM. In addition, in test [2], the IC50 was found to be 329 nM.

As to `Cn1cc(-c2ccnc3[nH]ccc23)c(-c2ccncc2F)n1` [Example 18, 4-[3-(3-Fluoro-4-pyridyl)-1-methyl-pyrazol-4-yl]-1H-pyrrolo[2,3-b]pyridine], in test [1], the concentration at half-maximal activity (AC50) came to 26 nM. For the same compound, the IC50 in test [2] was found to be 1770 nM.

Turning to `Cc1cc(-c2cn(C3COC3)nc2-c2ccc(F)cn2)c2cn[nH]c2n1` [Example 73, 4-(3-(5-Fluoropyridin-2-yl)-1-(oxetan-3-yl)-1H-pyrazol-4-yl)-6-methyl-1H-pyrazolo[3,4-b]pyridine], the AC50 in test [1] came out at 20 nM. In addition, in test [2], the IC50 is 576 nM.

For the compound `Cc1cc(-c2cn(C)nc2-c2ccc(Cl)c(C)n2)c2cn[nH]c2n1` [Example 39, 4-(3-(5-Chloro-6-methylpyridin-2-yl)-1-methyl-1H-pyrazol-4-yl)-6-methyl-1H-pyrazolo[3,4-b]pyridine], in test [1], the AC50 was 128 nM. For the same compound, the half-inhibitory concentration (IC50) in test [2] was found to be 3250 nM.

For the compound `Cc1cc(-c2cn(C)nc2-c2ccc(F)cn2)c2cn[nH]c2n1` [Example 99, 4-(3-(5-Fluoropyridin-2-yl)-1-methyl-1H-pyrazol-4-yl)-6-methyl-1H-pyrazolo[3,4-b]pyridine], the AC50 in test [1] came out at 11 nM. Further, the IC50 in test [2] was found to be 238 nM.

As to `Cn1cc(-c2c(C(F)(F)F)cnc3[nH]ccc23)c(-c2ccc(F)cn2)n1` [Example 87, 4-[3-(5-Fluoro-2-pyridyl)-1-methyl-pyrazol-4-yl]-5-(trifluoromethyl)-1H-pyrrolo[2,3-b]pyridine], the half-maximal activity concentration (AC50) in test [1] was 4 nM. Moreover, the IC50 in test [2] is 94 nM.

As for `Cn1cc(-c2ccnc3[nH]ccc23)c(-c2cnco2)n1` [Example 6, 5-(1-Methyl-4-(1H-pyrrolo[2,3-b]pyridin-4-yl)-1H-pyrazol-3-yl)oxazole], the AC50 in test [1] amounted to 41 nM. In addition, the IC50 in test [2] is 1420 nM.

Take `Cn1cc(-c2ncnc3[nH]ccc23)c(-c2ccc(F)cn2)n1` [Example 102, 4-(3-(5-Fluoropyridin-2-yl)-1-methyl-1H-pyrazol-4-yl)-7H-pyrrolo[2,3-d]pyrimidine]: the AC50 in test [1] turned out to be 48 nM. Also, in test [2], the IC50 is 1280 nM.

For `Cn1cc(-c2ccnc3[nH]ncc23)c(-c2ccncc2F)n1` [Example 19, 4-[3-(3-Fluoro-4-pyridyl)-1-methyl-pyrazol-4-yl]-1H-pyrazolo[3,4-b]pyridine], the AC50 in test [1] came out at 92 nM. In test [2], the 50% inhibitory concentration (IC50) was 797 nM.

With `Cc1cc(-c2cn(C)nc2-c2ccc(Cl)cn2)c2cn[nH]c2n1` [Example 26, 4-(3-(5-Chloropyridin-2-yl)-1-methyl-1H-pyrazol-4-yl)-6-methyl-1H-pyrazolo[3,4-b]pyridine], the AC50 in test [1] was 58 nM. Moreover, the IC50 in test [2] is 2090 nM.

For the compound `Cn1cc(-c2ccnc3ccc(F)nc23)c(-c2ccc(F)cn2)n1` [Example 127, 2-Fluoro-8-[3-(5-fluoro-2-pyridyl)-1-methyl-pyrazol-4-yl]-1,5-naphthyridine], in test [1], the AC50 worked out at 46 nM. Also, the IC50 in test [2] amounted to 962 nM.

As for `Cn1cc(-c2ccnc3[nH]ccc23)c(-c2ccns2)n1` [Example 12, 5-(1-Methyl-4-(1H-pyrrolo[2,3-b]pyridin-4-yl)-1H-pyrazol-3-yl)isothiazole], the AC50 in test [1] was 50 nM. In test [2], the IC50 stood at 678 nM.

For the compound `Cn1cc(-c2ccnc3[nH]c(C(F)F)cc23)c(-c2ccc(F)cn2)n1` [Example 84, 2-(Difluoromethyl)-4-(3-(5-fluoropyridin-2-yl)-1-methyl-1H-pyrazol-4-yl)-1H-pyrrolo[2,3-b]pyridine], the AC50 in test [1] stood at 23 nM. In test [2], the IC50 was 224 nM.

As to `COc1ccc2c(-c3cn(C)nc3-c3ccc(F)cn3)cc(C)nc2c1` [Example 110, 4-[3-(5-Fluoro-2-pyridyl)-1-methyl-pyrazol-4-yl]-7-methoxy-2-methyl-quinoline], the AC50 in test [1] stood at 5360 nM. In addition, the IC50 in test [2] was over 10000 nM.

For the compound `Fc1ccc(-c2nn(C(F)F)cc2-c2ccnc3[nH]ncc23)nc1` [Example 66, 4-(1-(Difluoromethyl)-3-(5-fluoropyridin-2-yl)-1H-pyrazol-4-yl)-1H-pyrazolo[3,4-b]pyridine], in test [1], the AC50 was determined as 526 nM. For the same compound, the IC50 in test [2] was determined as 1070 nM.

For `Cn1cc(-c2ccnc3[nH]ccc23)c(-c2ccc(OC(F)(F)F)cn2)n1` [Example 36, 4-[1-Methyl-3-[5-(trifluoromethoxy)-2-pyridyl]pyrazol-4-yl]-1H-pyrrolo[2,3-b]pyridine], in test [1], the AC50 came out at 6480 nM. Besides, in test [2], the IC50 is over 10000 nM.

`Cn1cc(-c2ccnc3[nH]c(C4COC4)cc23)c(-c2ccc(F)cn2)n1` [Example 92, 4-(3-(5-Fluoropyridin-2-yl)-1-methyl-1H-pyrazol-4-yl)-2-(oxetan-3-yl)-1H-pyrrolo[2,3-b]pyridine]: the IC50 in test [2] turned out to be 184 nM.

For orientation: AC50 means the concentration giving half of the maximal activity seen. Usually IC50 stands for the point on the concentration scale where inhibition reaches its midpoint.
